In ChEMBL document CHEMBL5550088, “Design, synthesis and evaluate of indazolylaminoquinazoline derivatives as potent Tropomyosin receptor kinase (TRK) inhibitors” (Bioorg Med Chem, 2024):

Columns and labels:
[1] = molecular target: High affinity nerve growth factor receptor (Homo sapiens, UniProt P04629); assay: Inhibition of wild type TRKA (unknown origin) preincubated for 30 mins followed by ATP and U Light-poly GT addition and measured after 2 hrs by multilabel plate reader method
BaF3 [2] = assay: Antiproliferative activity against mouse BaF3 cells harbouring ETV6-TRKB wildtype assessed as cell viability measured after 72 hrs by CCK-8 method; conditions: BaF3, 72 h
BaF3 [3] = assay: cells; conditions: Mus musculus, BaF3, 72 h
BaF3 [4] = assay: Antiproliferative activity against mouse BaF3 cells harbouring ETV6-TRKA wildtype assessed as cell viability measured after 72 hrs by CCK-8 method; conditions: BaF3, 72 h
BaF3 [5] = assay: cells; conditions: Mus musculus, BaF3, 72 h; remark: listed apart in the source

Sequence of High affinity nerve growth factor receptor (P04629 whole entry): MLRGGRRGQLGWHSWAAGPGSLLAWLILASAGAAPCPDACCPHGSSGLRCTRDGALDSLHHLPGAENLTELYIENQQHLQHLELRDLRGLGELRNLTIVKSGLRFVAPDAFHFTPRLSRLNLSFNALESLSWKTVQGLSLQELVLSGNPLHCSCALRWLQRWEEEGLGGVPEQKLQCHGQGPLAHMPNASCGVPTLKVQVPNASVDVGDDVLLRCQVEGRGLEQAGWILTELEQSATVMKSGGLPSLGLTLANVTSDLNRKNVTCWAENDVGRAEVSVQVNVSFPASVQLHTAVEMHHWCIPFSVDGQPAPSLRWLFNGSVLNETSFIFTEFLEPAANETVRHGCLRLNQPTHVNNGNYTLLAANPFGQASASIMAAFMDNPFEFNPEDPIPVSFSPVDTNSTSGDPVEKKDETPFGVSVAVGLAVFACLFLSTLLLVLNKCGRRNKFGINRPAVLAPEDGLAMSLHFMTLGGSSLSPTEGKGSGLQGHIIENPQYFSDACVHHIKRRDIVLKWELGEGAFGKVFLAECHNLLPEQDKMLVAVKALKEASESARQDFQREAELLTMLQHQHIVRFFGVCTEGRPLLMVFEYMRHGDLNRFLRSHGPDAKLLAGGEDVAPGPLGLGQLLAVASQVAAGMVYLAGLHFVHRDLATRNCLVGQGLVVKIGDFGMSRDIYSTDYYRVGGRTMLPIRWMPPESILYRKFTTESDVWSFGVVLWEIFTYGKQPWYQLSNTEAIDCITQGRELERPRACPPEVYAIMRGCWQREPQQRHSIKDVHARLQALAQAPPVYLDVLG

| Compound | IC50 [1] [nM] | IC50 (BaF3 [2]) [nM] | IC50 (BaF3 [3]) [nM] | IC50 (BaF3 [4]) [nM] | IC50 (BaF3 [5]) [nM] |
| --- | --- | --- | --- | --- | --- |
| CN(C)C1CCN(c2ccc3c(Nc4n[nH]c5ccc(Cc6cc(F)cc(F)c6)cc45)ncnc3c2)C1 (stereo unspecified) | 2.3 | – | – | – | – |
| CN(C)C1CCN(c2ccc3c(Nc4n[nH]c5ccc(Cc6cc(F)cc(F)c6)cc45)n[nH]c3c2)C1 (stereo unspecified) | 1.9 | – | – | – | – |
| O=C(Nc1cnn2ccc(N3CCC[C@@H]3c3cc(F)ccc3F)nc12)N1CC[C@H](O)C1 [LAROTRECTINIB] | – | 4.9 | 755 | 14.6 | 2890 |
